In patent publication US20240271223A1, “BIOMARKERS FOR A THERAPY COMPRISING AN ANGIOGENESIS INHIBITOR” (Eisai R&D Management Co., Ltd., priority 2021, published 2024):

Key:
[1] = tested on: 12 mouse syngeneic tumor models; assay: Changes in MVD gene score of 12 mouse syngeneic tumor models with or without angiogenesis inhibitor treatment (RNA-seq); assay type: in vivo; conditions: tumors collected on day 8, p<0.05, t-test, FIG. 7; for Gene score compared with non-treatment group: lenvatinib 10 mg/kg once daily oral, aflibercept 5 mg/kg twice a week i.p.
Experimental: Twelve mouse cell lines were cultured with appropriate medium (Table 1). Cells were harvested and suspended with Hanks' Balanced Salt Solution (HBSS) and subcutaneously inoculated into right lateral side of 7-week old immune competent mice. Tumor size was measured by an electronic digital caliper (Digimatic Caliper, Mitsutoyo Corporation) and calculated with a formula; (short diameter (mm))^2×(long diameter (mm))/2. Tumors around 100 mm^3 were resected and soaked with RNA later. mRNA extracted from tumor samples were followed by RNA-seq using Illumina NovaSeq™ (GENEWIZ) to quantify expression levels of mRNA. Sequenced reads were subjected to quality assessment by FastQC (version 0.11.5). Illumina adaptor sequences and low quality bases were trimmed by using Trimmomatic (version 0.36). Filtered reads were mapped to the mouse genome (GRCm38/mm10 and Ensembl 88) by using STAR (v2.5.2b). Gene expression levels in transcripts per million (TPM) for all samples were estimated by using RSEM (v1.2.31). Using the same tumor samples, CD31 was stained with anti-CD31 antibody (Clone SZ31, dianova) to detect endothelial cells in IHC analysis. Microvessel density (MVDCD31) score was calculated by dividing the number of CD31 positive blood vessels by tumor area using HALO (Indica Lab).
We developed a gene score by the following steps. First, we extracted 1086 genes that were highly expressed in an endothelial cell population using scRNA-seq data of the Hepa 1-6 mouse HCC model. Next, we extracted genes with TOP20 Pearson's correlation coefficient between its logarithm-transformed expression values (log2 (TPM+1)) and MVD (IHCCD31) using 12 syngeneic tumor models that were measured by RNA-seq and IHC, respectively. Of these 20 genes, we selected seven genes that had known association with vasculature from literature search and added 3 well-known endothelial cell markers to the gene list (Table 2). We further selected genes whose expression were specific to endothelial cell cluster by manually checking t-SNE plots of scRNA-seq data of Hepa 1-6 HCC model. Finally, six genes were chosen as mouse MVD gene set. The gene score of sample i was calculated as follows: […]
The twelve mouse cell lines shown in Table 1 were subcutaneously inoculated into right lateral side of 7-week-old immune competent mice. Mice were randomly grouped into non-treatment and lenvatinib treatment groups when the tumor size reached approximately 100 mm^3 (n=3 for each group). Lenvatinib (10 mg/kg once daily) was orally administered for mice of lenvatinib treatment group and aflibercept (5 mg/kg twice a week) was administered intraperitoneally for mice of aflibercept treatment group for a week. The day on which treatment was started was designated as day 1. […]

[2] = tested on: 12 mouse syngeneic tumor models; assay: Antitumor activity of lenvatinib on mouse syngeneic tumor models (ΔT/C); assay type: in vivo; conditions: 10 mg/kg once daily oral; ΔT/C on day 15; BNL, Renca and B16-F10 vs other nine models; p<0.05, t-test; FIG. 3c
Experimental: The twelve mouse cell lines shown in Table 1 were subcutaneously inoculated into the right lateral side of 7-week-old immune competent mice. Mice were randomly grouped when the tumor size reached approximately 100 mm^3. Lenvatinib (10 mg/kg once daily) was orally administered for mice of lenvatinib treatment group. The day on which treatment was started was designated as day 1. The values of antitumor activity (ΔT/C) were calculated as ΔT/ΔC×100 where ΔT and ΔC are changes in the mean tumor volumes for drug treated and untreated control groups, respectively. When the tumor volumes decreased from the initial tumor volumes, ΔT/C values were calculated as (Tt−T1)/T1×100, where Tt and T1 are the mean tumor volumes of drug treated group on day t after the start of treatment and day 1, respectively. ΔT/C on day 15 was used for the analysis.

[3] = tested on: PLC/PRF/5 xenograft HCC model and two HCC patient-derived xenograft models; conditions: cited from earlier work

Compound	Gene score compared with non-treatment group [1]	number of tumor models (of 12) in which gene score was decreased vs non-treatment group [1]	antitumor activity (ΔT/C) in lenvatinib sensitive models compared to other nine tumor models [2]	tumor microvessel density [3]
aflibercept: inhibitor of VEGF which binds to circulating VEGF and acts as VEGF-trap, leading to inhibiting tumor angiogenesis	significantly decreased	eight		
COc1cc2nccc(Oc3ccc(NC(=O)NC4CC4)c(Cl)c3)c2cc1C(N)=O [lenvatinib, 4-(3-chloro-4-(cyclopropylaminocarbonyl)aminophenoxy)-7-methoxy-6-quinolinecarb oxamide]	decreased	10 tumor models	more antitumor activity	reduced tumor microvessel density
